Assay results from ChEMBL document CHEMBL4483862, “Open-source discovery of chemical leads for next-generation chemoprotective antimalarials” (2018).

Test system: Plasmodium berghei
Assay: Luciferase/luciferin-expressing antifolate-resistant parasites were used to infect a culture of HepG2 cells that were pre-incubated with compounds. Infected hepatocytes emit light due to the luciferase reaction. Assay results are presented as the percent inhibition of light emission compared to control. […]
Type: functional
Settings: sporozoite; for IC90: read-out: LUCIFERASE INFECTION ASSAY - IC90
[1] = read-out: LUCIFERASE INFECTION ASSAY - IC50

Row | SMILES | IC90 | further results
1 | CC(=O)NCCCc1ccc(C(=O)COC(=O)c2ccccc2-n2cnnn2)cc1 | 2.51 µM | IC50 (PBLUC_HILL_SLOPE 3.15, PBLUC_R_SQUARED 0.801, read-out: LUCIFERASE INFECTION ASSAY - IC50): 1.25 µM
2 | O=C(OCC(=O)C12CC3CC(CC(C3)C1)C2)c1cc2ccccc2cc1O | > 10 µM | IC50 [1]: > 10 µM
3 | COc1cc(OC)cc(-c2cnc3cnc(-c4cccc(N)c4)cn23)c1 | > 9.53 µM | IC50 (FFLUC_HILL_SLOPE 17.8, FFLUC_R_SQUARED 0.255, PBLUC_HILL_SLOPE 12.5, PBLUC_R_SQUARED 0.443, read-out: LUCIFERASE INFECTION ASSAY - IC50): 9.41 µM
4 | Cc1ccc(C(=O)C(C)Oc2ccc(NC(=O)c3cccs3)cc2)cc1 (configuration not stated) | 1.47 µM | IC50 (PBLUC_HILL_SLOPE 1.89, PBLUC_R_SQUARED 0.795, read-out: LUCIFERASE INFECTION ASSAY - IC50): 0.461 µM
5 | O=c1cc(NCCC2=CCCCC2)c2ccccc2o1 | 3.21 µM | IC50 (FFLUC_HILL_SLOPE 16, FFLUC_R_SQUARED 0.221, HEPG2TOX_HILL_SLOPE 2.34, HEPG2TOX_R_SQUARED 0.809, PBLUC_HILL_SLOPE 2.17, PBLUC_R_SQUARED 0.461, read-out: LUCIFERASE INFECTION ASSAY - IC50): 1.17 µM
6 | CCN(c1ccccc1)S(=O)(=O)c1ccc(Cl)c(C(=O)Nc2ccn(C)n2)c1 | > 10 µM | IC50 [1]: > 10 µM
7 | COc1ccc(OC)c(CN2CCN(c3nn4cc(-c5ccccc5)nc4s3)CC2)c1 | > 10 µM | IC50 (PBLUC_HILL_SLOPE 9.65, 2.13, PBLUC_R_SQUARED 0.339, 0.240, read-out: LUCIFERASE INFECTION ASSAY - IC50): 6.69 µM
8 | O=c1c(Cl)c(Cl)cnn1-c1ccc(Cl)cc1Cl | 3.5 µM | IC50 (HEPG2TOX_HILL_SLOPE 16.8, 1.83, HEPG2TOX_R_SQUARED 0.839, 0.915, PBLUC_HILL_SLOPE 1.48, 10.9, PBLUC_R_SQUARED 0.768, 0.409, read-out: LUCIFERASE INFECTION ASSAY - IC50): 3.64 µM
9 | Cc1sc(-n2cccc2)c(C(=O)Nc2cccc(-c3nn[nH]n3)c2)c1C | > 10 µM | IC50 (FFLUC_HILL_SLOPE 1.33, FFLUC_R_SQUARED 0.778, read-out: LUCIFERASE INFECTION ASSAY - IC50): > 10 µM
10 | COc1ccc(CCNC(=S)NC(=O)c2c(-c3ccccc3Cl)noc2C)cc1OC | > 7.17 µM | IC50 (PBLUC_HILL_SLOPE 1.8, PBLUC_R_SQUARED 0.103, read-out: LUCIFERASE INFECTION ASSAY - IC50): > 7.17 µM
11 | CS(=O)(=O)c1ccccc1NC(=O)COC(=O)c1cccnc1N | > 10 µM | IC50 (FFLUC_HILL_SLOPE 0.757, FFLUC_R_SQUARED 0.634, read-out: LUCIFERASE INFECTION ASSAY - IC50): > 10 µM
12 | Cc1cc(C)cc(NC(=S)NC2CCCC(C)C2C)c1 (configuration not stated) | 9.4 µM | IC50 (PBLUC_HILL_SLOPE 3.85, PBLUC_R_SQUARED 0.565, read-out: LUCIFERASE INFECTION ASSAY - IC50): 5.32 µM
13 | Cc1ccc(-n2c(C)cc(C(=O)CN(c3ccccc3)S(=O)(=O)c3ccc(F)cc3)c2C)cc1C | > 10 µM | IC50 (FFLUC_HILL_SLOPE 9.87, FFLUC_R_SQUARED 0.464, read-out: LUCIFERASE INFECTION ASSAY - IC50): > 10 µM
14 | COCCNCCOc1ccc(OCc2ccccc2)cc1 | > 10.9 µM | IC50 [1]: > 10.9 µM
15 | CCOC(=O)c1c(-c2ccc(C)o2)csc1NC(=O)CN(C)CC(=O)Nc1ccc(Cl)c(C(F)(F)F)c1 | > 10 µM | IC50 [1]: > 10 µM
16 | COc1ccc(NS(=O)(=O)c2c(C)c(C)c(C)c(C)c2C)cc1O | 3.8 µM | IC50 (FFLUC_HILL_SLOPE 1.05, FFLUC_R_SQUARED 0.782, HEPG2TOX_HILL_SLOPE 1.26, HEPG2TOX_R_SQUARED 0.985, PBLUC_HILL_SLOPE 23, PBLUC_R_SQUARED 0.188, read-out: LUCIFERASE INFECTION ASSAY - IC50): 3.45 µM
17 | CCCNC(=O)c1c(NC(=O)c2cccc(C)c2)nc2ccccn12 | > 9.81 µM | IC50 (PBLUC_HILL_SLOPE 17.7, PBLUC_R_SQUARED 0.381, read-out: LUCIFERASE INFECTION ASSAY - IC50): 9.1 µM
18 | CS(=O)(=O)Nc1cccc(-c2cnc3ccc(Cc4ccc(F)cc4)nn23)c1 | 5.12 µM | IC50 (PBLUC_HILL_SLOPE 7.81, PBLUC_R_SQUARED 0.241, read-out: LUCIFERASE INFECTION ASSAY - IC50): 3.87 µM
19 | Cc1ccc(C(O)c2nnc(Nc3cc(C(F)(F)F)ccc3F)s2)cc1 (configuration not stated) | > 10 µM | IC50 [1]: > 10 µM
20 | NC(Cc1ccc(F)cc1)c1csc(Nc2cc(NCc3ccco3)ncn2)n1 (configuration not stated) | > 8.04 µM | IC50 [1]: > 8.04 µM
21 | CC(C)(C)c1cc(C(=O)Nc2nc(C(N)c3ccccc3Cl)cs2)n(Cc2ccccc2)n1 (configuration not stated) | 6.37 µM | IC50 (PBLUC_HILL_SLOPE 22.9, PBLUC_R_SQUARED 0.71, read-out: LUCIFERASE INFECTION ASSAY - IC50): 5.79 µM

Row | SMILES | IC90 | further results
22 | Cn1c(Nc2ccccc2)nc2cnc(-c3ccc4ccccc4c3)cc21 | > 10 µM | IC50 (PBLUC_HILL_SLOPE 3.04, PBLUC_R_SQUARED 0.156, read-out: LUCIFERASE INFECTION ASSAY - IC50): 6.85 µM
23 | CC(OC(=O)c1cc2ccccc2[nH]1)C(=O)Nc1cccc(C#N)c1 (configuration not stated) | > 10 µM | IC50 (HEPG2TOX_HILL_SLOPE 7.96, HEPG2TOX_R_SQUARED 0.0358, PBLUC_HILL_SLOPE 3.96, PBLUC_R_SQUARED 0.0932, read-out: LUCIFERASE INFECTION ASSAY - IC50): 8.49 µM
24 | O=C(Nc1ccc(Oc2ccc(C(F)(F)F)cn2)c(Cl)c1)C1CC1 | 4.36 µM | IC50 (PBLUC_HILL_SLOPE 2.75, PBLUC_R_SQUARED 0.594, read-out: LUCIFERASE INFECTION ASSAY - IC50): 1.96 µM
25 | O=C1NC(c2ccccc2)=C(C(=O)C(F)(F)F)C(c2ccc(OC(F)F)cc2)N1 (configuration not stated) | > 10 µM | IC50 [1]: > 10 µM
26 | Brc1cnc(N2CCN(C(c3ccccc3)(c3ccccc3)c3ccccc3)CC2)nc1 | > 6.8 µM | IC50 (FFLUC_HILL_SLOPE 9.83, FFLUC_R_SQUARED 0.0243, read-out: LUCIFERASE INFECTION ASSAY - IC50): > 6.8 µM
27 | O=c1[nH]c2ccc(NCc3cc(Cl)ccc3OCc3ccc(F)cc3)cc2[nH]1 | > 8.29 µM | IC50 [1]: > 8.29 µM
28 | Cn1ncc2c(N3CCN(CC(=O)Nc4nc(-c5c[nH]c6ccccc56)cs4)CC3)ncnc21 | 4.22 µM | IC50 (HEPG2TOX_HILL_SLOPE 3.32, HEPG2TOX_R_SQUARED 0.453, PBLUC_HILL_SLOPE 2.65, 8.86, PBLUC_R_SQUARED 0.123, 0.280, read-out: LUCIFERASE INFECTION ASSAY - IC50): 2.62 µM
29 | O=C(Nc1ccc(-c2csc(NC(=O)c3c[nH]nc3-c3ccccc3)n2)cc1)c1ccccc1 | 7.36 µM | IC50 [1]: 2.42 µM
30 | CCOC(=O)c1c(NC(=O)C2Cc3ccccc3CN2S(=O)(=O)c2cccs2)sc2c1CCCC2 (configuration not stated) | > 10 µM | IC50 (HEPG2TOX_HILL_SLOPE 0.167, HEPG2TOX_R_SQUARED 0.0943, PBLUC_HILL_SLOPE 2.23, PBLUC_R_SQUARED 0.122, read-out: LUCIFERASE INFECTION ASSAY - IC50): 6.53 µM
31 | CC(C)(C)c1ccc(-c2cnc3cnc(-c4ccc(C(=O)NCCO)cc4)cn23)cc1 | > 7.96 µM | IC50 (PBLUC_HILL_SLOPE 23.2, PBLUC_R_SQUARED 0.508, read-out: LUCIFERASE INFECTION ASSAY - IC50): 7.27 µM
32 | CC(=O)Nc1cccc(-n2nnnc2Sc2ccc([N+](=O)[O-])cc2C#N)c1 | 9.5 µM | IC50 (PBLUC_HILL_SLOPE 17.4, PBLUC_R_SQUARED 0.386, read-out: LUCIFERASE INFECTION ASSAY - IC50): 8.38 µM
33 | O=C1/C(=C\Nc2nnc(-c3ccccc3)c(-c3ccccc3)n2)c2ccccc2C(=O)N1c1cccc(C(F)(F)F)c1 | > 10 µM | IC50 [1]: > 10 µM
34 | CCOC(=O)c1sc(N(NC(=O)c2ccccc2Cl)C(=O)c2ccccc2Cl)c2c1CC(C)(C)CC2=O | > 5.9 µM | IC50 (HEPG2TOX_HILL_SLOPE 5.11, HEPG2TOX_R_SQUARED 0.645, PBLUC_HILL_SLOPE 3.24, PBLUC_R_SQUARED 0.155, read-out: LUCIFERASE INFECTION ASSAY - IC50): 3.1 µM
35 | OCc1cccc(-c2cnc3cnc(-c4ccc(CNc5ccccc5)cc4)cn23)c1 | > 8.12 µM | IC50 (FFLUC_HILL_SLOPE 0.18, FFLUC_R_SQUARED 0.146, PBLUC_HILL_SLOPE 3.27, PBLUC_R_SQUARED 0.516, read-out: LUCIFERASE INFECTION ASSAY - IC50): 6.25 µM
36 | NC(=NC(=S)Nc1cc(Cl)ccc1Cl)c1ccccc1 | > 10.2 µM | IC50 (HEPG2TOX_HILL_SLOPE 6.22, HEPG2TOX_R_SQUARED 0.375, read-out: LUCIFERASE INFECTION ASSAY - IC50): > 10.2 µM
37 | COc1ccc(/C=C(\C#N)C(=O)N(CCCN2C(=O)c3cccc4cccc(c34)C2=O)c2ccc(C)cc2C)cc1 | > 10 µM | IC50 (FFLUC_HILL_SLOPE 3.25, FFLUC_R_SQUARED 0.523, read-out: LUCIFERASE INFECTION ASSAY - IC50): > 10 µM
38 | Cc1onc(-c2c(Cl)cccc2Cl)c1NC(=O)Nc1ccc(Oc2ccc(C(C)(C)C)cc2)nc1 | > 6.45 µM | IC50 (FFLUC_HILL_SLOPE 11.2, FFLUC_R_SQUARED 0.206, PBLUC_HILL_SLOPE 0.638, PBLUC_R_SQUARED 0.443, read-out: LUCIFERASE INFECTION ASSAY - IC50): 2.71 µM
39 | COc1cc(/C=C(\C#N)c2nc3ccccc3[nH]2)ccc1OC(=O)c1cc2c(C)nn(-c3ccccc3)c2s1 | > 10 µM | IC50 (FFLUC_HILL_SLOPE 1.24, FFLUC_R_SQUARED 0.777, PBLUC_HILL_SLOPE 2.61, PBLUC_R_SQUARED 0.768, read-out: LUCIFERASE INFECTION ASSAY - IC50): 5.91 µM
40 | O=C(NCCC1=CCCCC1)c1ccccc1CN1C(=O)CNC1=O | > 10 µM | IC50 [1]: > 10 µM
41 | CC(C(=O)Nc1cc([N+](=O)[O-])ccc1Cl)N(C)CC(=O)Nc1ccc(Cl)c(C(F)(F)F)c1 (configuration not stated) | > 10 µM | IC50 (HEPG2TOX_HILL_SLOPE 0.377, HEPG2TOX_R_SQUARED 0.303, read-out: LUCIFERASE INFECTION ASSAY - IC50): > 10 µM
